Assay results from ChEMBL document CHEMBL1133071, “Potent in vitro methicillin-resistant Staphylococcus aureus activity of 2-(1H-indol-3-yl)quinoline derivatives” (2000).
Converted amounts (≈) assume the structure as drawn.

Assays:
Type in all cases: functional
Enterococcus faecium = test: Minimum inhibitory concentration against vancomycin resistant Enterococcus faecium (VRE)
Staphylococcus aureus [1] = test: Minimum inhibitory concentration against methicillin resistant staphylococcus aureus (MRSA)
Staphylococcus aureus [2] = test: The compound was evaluated in vitro for minimum inhibitory concentration against staphylococcus aureus HP-5827
Staphylococcus aureus [3] = test: The compound was evaluated in vitro for minimum inhibitory concentration against staphylococcus aureus HP-5836

SMILES | MIC (Enterococcus faecium) [µg/mL] | MIC (Staphylococcus aureus [1]) [µg/mL] | MIC (Staphylococcus aureus [2]) [µg/mL] | MIC (Staphylococcus aureus [3]) [µg/mL]
Clc1ccc2ccc(-c3c[nH]c4ccc(Br)cc34)nc2c1 | > 25 | 0.6 (≈ 1.68 µM) | – | –
NCCNC(=O)c1cc(-c2c[nH]c3ccc(Br)cc23)nc2ccc(Cl)cc12.O=C(O)C(F)(F)F | 3.13 | 1.56 | – | –
Clc1ccc2c(Cl)cc(-c3c[nH]c4ccc(Br)cc34)nc2c1 | 3.13 (≈ 7.98 µM) | < 0.39 | – | –
Clc1ccc2nc(-c3c[nH]c4ccccc34)ccc2c1 | > 25 | 5 (≈ 17.9 µM) | – | –
Oc1ccc2[nH]cc(-c3ccc4cc(Cl)ccc4n3)c2c1 | > 25 | 12.5 (≈ 42.4 µM) | – | –
Clc1ccc2nc(-c3c[nH]c4c(Cl)cccc34)ccc2c1 | > 25 | > 25 | – | –
OCc1cc(-c2c[nH]c3ccc(Br)cc23)nc2cc(Cl)ccc12 | 2.5 (≈ 6.45 µM) | 0.31 (≈ 0.8 µM) | – | –
Clc1ccc2nc(-c3c[nH]c4ccc(Cl)cc34)ccc2c1 | > 25 | 0.78 (≈ 2.49 µM) | – | –
NCCNC(=O)c1cc(-c2c[nH]c3ccc(Br)cc23)nc2c(Cl)cccc12.O=C(O)C(F)(F)F | 3.13 | 1.56 | – | –
O=C(Oc1ccc2[nH]cc(-c3ccc4cc(Cl)ccc4n3)c2c1)c1ccccc1 | > 25 | 1.56 (≈ 3.91 µM) | – | –
NCCNC(=O)c1cc(-c2c[nH]c3ccc(Br)cc23)nc2cc(Cl)cc(Cl)c12.O=C(O)C(F)(F)F | 1.56 | 0.78 | – | –
NCCNC(=O)c1cc(-c2c[nH]c3ccc(Br)cc23)nc2cc(Cl)c(C#CCN3CCCCC3)cc12.O=C(O)C(F)(F)F | 6.25 | 3.13 | 1.56 | 3.13
NCc1cc(-c2c[nH]c3ccc(Br)cc23)nc2cc(Cl)ccc12.O=C(O)C(F)(F)F | 1.56 | 0.78 | 0.39 | 0.39
NCCNC(=O)c1cc(-c2c[nH]c3ccc(Br)cc23)nc2cc3c(cc12)OCO3.O=C(O)C(F)(F)F | – | 12.5 | – | –
Clc1ccc2nc(-c3c[nH]c4ccc(Br)cc34)ccc2c1 | > 25 | 0.62 (≈ 1.73 µM) | – | –
COc1ccc2[nH]cc(-c3ccc4cc(Cl)ccc4n3)c2c1 | > 25 | > 25 | – | –
NCCNC(=O)c1cc(-c2c[nH]c3ccc(Br)cc23)nc2ccccc12.O=C(O)C(F)(F)F | 25 | 12.5 | – | –
NCCNC(=O)c1cc(-c2c[nH]c3ccc(Br)cc23)nc2c(Cl)c(Cl)ccc12.O=C(O)C(F)(F)F | 0.78 | 0.78 | – | –
Fc1ccc2[nH]cc(-c3ccc4cc(Cl)ccc4n3)c2c1 | 12.5 (≈ 42.1 µM) | 0.78 (≈ 2.63 µM) | – | –
Fc1ccc2c(-c3ccc4cc(Cl)ccc4n3)c[nH]c2c1 | 6.25 (≈ 21.1 µM) | 1.56 (≈ 5.26 µM) | – | –
NCCNC(=O)c1cc(-c2c[nH]c3ccc(Br)cc23)nc2cc(Cl)ccc12.O=C(O)C(F)(F)F | 1.56 | 0.78 | 0.78 | 0.39
O=C(O)c1cc(-c2c[nH]c3ccc(Br)cc23)nc2cc(Cl)ccc12 | 25 (≈ 62.2 µM) | 25 (≈ 62.2 µM) | – | –
N#Cc1ccc2[nH]cc(-c3ccc4cc(Cl)ccc4n3)c2c1 | > 25 | > 25 | – | –
NCCNC(=O)c1cc(-c2c[nH]c3ccc(Br)cc23)nc2c(F)cccc12.O=C(O)C(F)(F)F | 12.5 | 6.25 | – | –
NCCNC(=O)c1cc(-c2c[nH]c3ccc(Br)cc23)nc2cc(F)ccc12.O=C(O)C(F)(F)F | 3.13 | 3.13 | – | –
Fc1cccc2[nH]cc(-c3ccc4cc(Cl)ccc4n3)c12 | > 25 | > 25 | – | –
